Molecules are shown by their SMILES. pIC50: −log10 of the molar value.

Common to all, as to format: cell-based
Assay [1] concerns the target T1, TSHR (Homo sapiens, UniProt P16473).
T1 construct: expressed in transfected cells
Description: cAMP accumulation radioimmunoassay (RIA), inhibition of TSH-induced cAMP production in HEK-293 cells stably expressing TSHR. Set-up: antagonistic activity (% inhibition): concentration or dose not given beside the values. The note with it: for antagonistic activity (% inhibition): inhibiting cAMP stimulation by TSH, radioimmunoassay. How it is done:
(§1) HEK-293 cells stably expressing TSHR, FSHR, LHGCR or CRF1R were cultured for 48 h and stimulated for 1 h at 37° C. with stimulation buffer (DMEM supplemented with 10 mM HEPES, 0.5% BSA, 0.25 mM 3-isobutyl-1-methylxanthine) containing the ligands as indicated. After stimulation medium was aspirated and reactions were stopped by lysis of the cells with 0.1% trifluoroacetic acid, 0.005% Triton X-100 for 30 min at 4° C. Supernatants were collected and heated at 95° C. for 10 min, dried in a rotation vacuum concentrator (Alpha-RCV, Christ) and finally stored at −20° C. until use. After reconstitution and acetylation of the samples (Jäschke et al. 2006), the cAMP content was determined using cAMP-^125I-tyrosyl methyl ester (10,000 cpm, IBL) and polyclonal rabbit anti cAMP antibodies. The radioactivity of the precipitate was determined in a γ-counter.
For the Secondary Screening cAMP accumulation was measured by radioimmunoassay (RIA) in HEK-293-TSHR cells as described before.
For the secondary screening we used a very sensitive in vitro technique, the radioimmunoassay. This assay was established and performed in HEK-293 cell line stably expressing TSHR.
Therefore RIA was used to measure the cAMP accumulation upon stimulation with TSH (EC80 value) and confirmed the desired effect for S4 and S9 with a clear decrease of cAMP production.
For orientation: cAMP levels reflect the balance of adenylyl cyclase and phosphodiesterase activity.

A further assay deals with T2, FSHR (Homo sapiens, UniProt P23945).
T2 construct: expressed in transfected cells
T2 sequence (P23945 18-695): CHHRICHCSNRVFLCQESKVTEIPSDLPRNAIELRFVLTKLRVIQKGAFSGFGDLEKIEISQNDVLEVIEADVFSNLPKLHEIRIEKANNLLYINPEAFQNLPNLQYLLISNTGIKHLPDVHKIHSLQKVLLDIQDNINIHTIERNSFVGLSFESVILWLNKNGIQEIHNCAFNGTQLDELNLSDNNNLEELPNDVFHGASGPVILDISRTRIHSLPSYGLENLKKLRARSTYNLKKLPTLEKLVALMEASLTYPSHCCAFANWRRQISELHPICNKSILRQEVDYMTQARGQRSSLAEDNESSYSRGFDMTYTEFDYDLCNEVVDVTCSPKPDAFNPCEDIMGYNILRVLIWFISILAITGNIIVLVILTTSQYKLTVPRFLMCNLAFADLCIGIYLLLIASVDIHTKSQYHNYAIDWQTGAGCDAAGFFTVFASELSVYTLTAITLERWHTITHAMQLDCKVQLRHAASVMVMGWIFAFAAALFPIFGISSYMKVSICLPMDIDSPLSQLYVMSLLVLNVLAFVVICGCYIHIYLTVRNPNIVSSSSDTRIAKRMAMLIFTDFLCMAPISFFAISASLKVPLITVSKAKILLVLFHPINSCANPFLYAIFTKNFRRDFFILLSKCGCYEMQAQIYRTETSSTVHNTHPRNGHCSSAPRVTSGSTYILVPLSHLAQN
Description: Selectivity test: cAMP RIA in HEK-293 cells stably expressing FSHR. The conditions noted are these: 50 μM together with the respective agonist. How it is done:
as §1
The antagonistic activity of compounds S4, S9, S37 and as reference compound, the micromolar inverse agonist 2-7 (Neumann et al. 2010) were tested on homologous members of the glycoprotein hormone receptor family, FSHR and LHCGR. […] All receptors were stably expressed in HEK-293 cells and the impact of each substance was measured upon administration of 50 μM together with the respective agonist. cAMP accumulation was quantified by RIA. The antagonistic potential of each compound was calculated. […]

Assay [2] has as its target T1, TSHR. Description: Primary screening, Enzyme Fragment Complementation (EFC) cAMP assay in CHO-K1-TSHR cells. The conditions noted are these: 50 μM; after hit validation and exclusion of false positives. The protocol: Primary screening was performed using an Enzyme Fragment Complementation (EFC) technology. CHO-K1-TSHR cells (15000/well in a 384 well plate) were treated with 50 μM of each of the 16544 compounds of the ChemBioNet compound library of the Leibniz-Institut fuer Molekulare Pharmakologie (FMP), Berlin, Germany. EFC technology uses two fragments of one enzyme: an enzyme acceptor (EA) and an enzyme donor (ED). ED is labeled to (synthetic) cAMP. […] In this assay, free cAMP from cell lysates and ED-labeled cAMP compete for antibody binding sites. Unbound ED-cAMP is free to complement EA to form active enzyme, which subsequently produces a luminescent signal. Thus the luminescence signal increases with rising level of intracellular cAMP. All assay components were used after the manufacturer's protocol.
Hits were validated by dose-response curves using the EFC assay.
False-positive hits could be excluded by stimulating CHO-K1 cells without TSHR with Forskolin (23.4 μM) followed by addition of the compound of interest. Forskolin activates the Adenylyl-cyclase directly. Inhibition of this effect excludes the interaction between TSHR and compound.
For the implementation of the primary screen the Enzymes Fragment Complementation Technology (EFC) was selected.

T1 sequence (P16473 21-764): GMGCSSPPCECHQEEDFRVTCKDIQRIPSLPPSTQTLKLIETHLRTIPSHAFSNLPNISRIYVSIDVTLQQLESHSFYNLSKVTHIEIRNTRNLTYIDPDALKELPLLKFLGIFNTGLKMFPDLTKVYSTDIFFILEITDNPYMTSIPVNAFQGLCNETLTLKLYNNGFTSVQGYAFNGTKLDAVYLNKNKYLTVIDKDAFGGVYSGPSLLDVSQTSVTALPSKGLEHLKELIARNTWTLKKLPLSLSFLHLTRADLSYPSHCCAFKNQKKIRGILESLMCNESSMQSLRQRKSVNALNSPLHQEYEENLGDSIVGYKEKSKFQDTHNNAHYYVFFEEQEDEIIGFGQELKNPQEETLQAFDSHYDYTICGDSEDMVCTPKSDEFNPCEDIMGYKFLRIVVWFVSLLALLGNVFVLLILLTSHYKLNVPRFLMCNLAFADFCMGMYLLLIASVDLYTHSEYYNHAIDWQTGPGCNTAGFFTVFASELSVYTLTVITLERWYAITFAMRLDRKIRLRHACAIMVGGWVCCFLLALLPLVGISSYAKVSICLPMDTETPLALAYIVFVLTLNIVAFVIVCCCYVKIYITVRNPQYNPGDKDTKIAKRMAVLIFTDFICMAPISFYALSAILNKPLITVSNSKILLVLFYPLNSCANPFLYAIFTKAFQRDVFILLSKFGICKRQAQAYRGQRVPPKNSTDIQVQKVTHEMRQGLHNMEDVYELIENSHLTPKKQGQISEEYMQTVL

With `COC(=O)c1cccc(N2C(=O)[C@@H]3[C@H]4C[C@H]([C@@H]5Sc6[nH]c(=O)sc6[C@@H](c6ccccc6)[C@H]45)[C@@H]3C2=O)c1` (racemic) [Compound S96, methyl 3-((4aR,5R,5aS,8aS,9S,9aR,10S)-2,6,8-trioxo-10-phenyl-3,4a,5,5a,6,8,8a,9,9a,10-decahydro-5,9-methanothiazolo[5′,4′:5,6]thiopyrano[2,3-f]isoindol-7(2H)-yl)benzoate compound with methyl 3-((4aS,5S,5aR,8aR,9R,9aS,10R)-2,6,8-trioxo-10-phenyl-3,4a,5,5a,6,8,8a,9,9a,10-decahydro-5,9-methanothiazolo[5′,4′:5,6]thiopyrano[2,3-f]isoindol-7(2H)-yl)benzoate (1:1)], the “antagonistic activity (% inhibition)” value on TSHR [1] worked out at 34%.

On to `O=C1[C@@H]2[C@H]3C[C@H]([C@@H]4Sc5[nH]c(=O)sc5[C@@H](c5ccccc5)[C@H]34)[C@@H]2C(=O)N1c1ccc(O)cc1` (racemic) [Compound S100, (4aR,5R,5aS,8aS,9S,9aR,10S)-7-(4-hydroxyphenyl)-10-phenyl-3,4a,5,5a,8a,9,9a,10-octahydro-5,9-methanothiazolo[5′,4′:5,6]thiopyrano[2,3-f]isoindole-2,6,8(7H)-trione compound with (4aS,5S,5aR,8aR,9R,9aS,10R)-7-(4-hydroxyphenyl)-10-phenyl-3,4a,5,5a,8a,9,9a,10-octahydro-5,9-methanothiazolo[5′,4′:5,6]thiopyrano[2,3-f]isoindole-2,6,8(7H)-trione (1:1)], for which the “antagonistic activity (% inhibition)” value on TSHR [1] was 34%. In the case of `O=C1[C@@H]2[C@H]3C[C@H]([C@@H]4Sc5[nH]c(=O)sc5[C@@H](c5ccc(O)cc5)[C@H]34)[C@@H]2C(=O)N1c1ccccc1` (racemic) [Compound S122, (4aR,5R,5aS,8aS,9S,9aR,10S)-10-(4-hydroxyphenyl)-7-phenyl-3,4a,5,5a,8a,9,9a,10-octahydro-5,9-methanothiazolo[5′,4′:5,6]thiopyrano[2,3-f]isoindole-2,6,8(7H)-trione compound with (4aS,5S,5aR,8aR,9R,9aS,10R)-10-(4-hydroxyphenyl)-7-phenyl-3,4a,5,5a,8a,9,9a,10-octahydro-5,9-methanothiazolo[5′,4′:5,6]thiopyrano[2,3-f]isoindole-2,6,8(7H)-trione (1:1)], the “antagonistic activity (% inhibition)” value at TSHR [1] came to 38%. With `O=C1[C@@H]2[C@H]3C[C@H]([C@@H]4Sc5[nH]c(=O)sc5[C@@H](c5ccc(F)cc5)[C@H]34)[C@@H]2C(=O)N1c1ccccc1` (racemic) [Compound S124, (4aR,5R,5aS,8aS,9S,9aR,10S)-10-(4-fluorophenyl)-7-phenyl-3,4a,5,5a,8a,9,9a,10-octahydro-5,9-methanothiazolo[5′,4′:5,6]thiopyrano[2,3-f]isoindole-2,6,8(7H)-trione compound with (4aS,5S,5aR,8aR,9R,9aS,10R)-10-(4-fluorophenyl)-7-phenyl-3,4a,5,5a,8a,9,9a,10-octahydro-5,9-methanothiazolo[5′,4′:5,6]thiopyrano[2,3-f]isoindole-2,6,8(7H)-trione (1:1)], the “antagonistic activity (% inhibition)” value on TSHR [1] stood at 22%. Consider `O=C1[C@@H]2[C@H]3C[C@H]([C@@H]4Sc5[nH]c(=O)sc5[C@@H](c5cccc(O)c5)[C@H]34)[C@@H]2C(=O)N1c1ccccc1` (racemic) [Compound S125, (4aR,5R,5aS,8aS,9S,9aR,10S)-10-(3-hydroxyphenyl)-7-phenyl-3,4a,5,5a,8a,9,9a,10-octahydro-5,9-methanothiazolo[5′,4′:5,6]thiopyrano[2,3-f]isoindole-2,6,8(7H)-trione compound with (4aS,5S,5aR,8aR,9R,9aS,10R)-10-(3-hydroxyphenyl)-7-phenyl-3,4a,5,5a,8a,9,9a,10-octahydro-5,9-methanothiazolo[5′,4′:5,6]thiopyrano[2,3-f]isoindole-2,6,8(7H)-trione (1:1)], for which the “antagonistic activity (% inhibition)” value on TSHR [1] is 34%. As for `Cc1ccc(N2C(=O)C3C4CC(C3C2=O)C2C(c3ccccc3)c3sc(=O)[nH]c3SC42)cc1` (centres unmarked) [Compound S4], the “Antagonistic effect (cAMP inhibition) on TSHR” value at TSHR [1] (50 μM together with the respective agonist, RIA, HEK-293) was “inhibits TSHR and FSHR activation”. The “antagonistic activity (% inhibition)” value at TSHR [1] came to 63%. For the same molecule, at TSHR [1] (secondary screen (RIA), dose-dependent inhibition of cAMP production caused by TSH (EC80 value), HEK-293-TSHR), the pIC50 (usually the negative decadic logarithm of the IC50, by convention in mol/L) was 4.31. Also, on FSHR, the “Antagonistic effect (cAMP inhibition) on FSHR” value was “inhibits TSHR and FSHR activation”. Also, the “Primary screen hit: cAMP production induced by thyrotropin” value on TSHR [2] is on record as “potentially abolishing cAMP production”.

Consider `Cc1ccc(N2C(=O)C3C4CC(C3C2=O)C2C(c3ccc(N(C)C)cc3)c3sc(=O)[nH]c3SC42)cc1` (centres unmarked) [Compound S18], for which the “antagonistic activity (% inhibition)” value on TSHR [1] is 30%. As to `O=C1C2C3CC(C2C(=O)N1c1ccccc1)C1C(c2ccc(O)cc2)c2sc(=O)[nH]c2SC31` (centres unmarked) [Compound S19], on TSHR [1], the “antagonistic activity (% inhibition)” value is reported as 50%.

On to `O=C1C2C3CC(C2C(=O)N1c1cccc(C(F)(F)F)c1)C1C(c2ccccc2)c2sc(=O)[nH]c2SC31` (centres unmarked) [Compound S21], for which the “antagonistic activity (% inhibition)” value on TSHR [1] is 55%. With `O=C1C2C3C=CC(C3)C2C(=O)N1c1ccc(N2CCOCC2)c([N+](=O)[O-])c1` (centres unmarked) [Compound S26], the “antagonistic activity (% inhibition)” value on TSHR [1] is 35%.

In the case of `CCOC(=O)N1CCN(c2ncc(N3C(=O)C4C(C3=O)[C@H]3C=C[C@@H]4C3)cc2[N+](=O)[O-])CC1` (some centres unmarked) [Compound S34], on TSHR [1], the “antagonistic activity (% inhibition)” value came to 30%. As for `CCOC(=O)N1CCN(c2ncc(N3C(=O)[C@@H]4[C@H](C3=O)[C@H]3C=C[C@@H]4C3)cc2[N+](=O)[O-])CC1` [Compound S35], the “antagonistic activity (% inhibition)” value on TSHR [1] is listed as 15%. On the same count and under the same terms, under `CN1CCN(c2ccc(N3C(=O)[C@@H]4[C@H]5C[C@H]([C@@H]6Sc7[nH]c(=O)sc7[C@@H](c7ccccc7)[C@H]56)[C@@H]4C3=O)cc2[N+](=O)[O-])CC1` [Compound S38, (4aS,5S,5aR,8aR,9R,9aS,10R)-7-(4-(4-methylpiperazin-1-yl)-3-nitrophenyl)-10-phenyl-3,4a,5,5a,8a,9,9a,10-octahydro-5,9-methanothiazolo[5′,4′:5,6]thiopyrano[2,3-f]isoindole-2,6,8(7H)-trione] stands 40%.
